Experimental data published in ChEMBL document CHEMBL4806968, “Hipk inhibitors and methods of use thereof” (2020).
Calls of active or inactive are those of the source. The calls are words filed in the database; no cut-off is given here.

What was measured:
[1] = biological target: Eukaryotic translation initiation factor 2-alpha kinase 3 (Homo sapiens) (UniProt Q9NZJ5); test: Inhibition of PERK (unknown origin) at 0.5 uM relative to control
[2] = biological target: Platelet-derived growth factor receptor beta (Homo sapiens) (UniProt P09619); test: Inhibition of PDGFR-beta (unknown origin) at 0.5 uM relative to control
Platelet-derived growth factor receptor beta (Homo sapiens), sequence (P09619 whole entry): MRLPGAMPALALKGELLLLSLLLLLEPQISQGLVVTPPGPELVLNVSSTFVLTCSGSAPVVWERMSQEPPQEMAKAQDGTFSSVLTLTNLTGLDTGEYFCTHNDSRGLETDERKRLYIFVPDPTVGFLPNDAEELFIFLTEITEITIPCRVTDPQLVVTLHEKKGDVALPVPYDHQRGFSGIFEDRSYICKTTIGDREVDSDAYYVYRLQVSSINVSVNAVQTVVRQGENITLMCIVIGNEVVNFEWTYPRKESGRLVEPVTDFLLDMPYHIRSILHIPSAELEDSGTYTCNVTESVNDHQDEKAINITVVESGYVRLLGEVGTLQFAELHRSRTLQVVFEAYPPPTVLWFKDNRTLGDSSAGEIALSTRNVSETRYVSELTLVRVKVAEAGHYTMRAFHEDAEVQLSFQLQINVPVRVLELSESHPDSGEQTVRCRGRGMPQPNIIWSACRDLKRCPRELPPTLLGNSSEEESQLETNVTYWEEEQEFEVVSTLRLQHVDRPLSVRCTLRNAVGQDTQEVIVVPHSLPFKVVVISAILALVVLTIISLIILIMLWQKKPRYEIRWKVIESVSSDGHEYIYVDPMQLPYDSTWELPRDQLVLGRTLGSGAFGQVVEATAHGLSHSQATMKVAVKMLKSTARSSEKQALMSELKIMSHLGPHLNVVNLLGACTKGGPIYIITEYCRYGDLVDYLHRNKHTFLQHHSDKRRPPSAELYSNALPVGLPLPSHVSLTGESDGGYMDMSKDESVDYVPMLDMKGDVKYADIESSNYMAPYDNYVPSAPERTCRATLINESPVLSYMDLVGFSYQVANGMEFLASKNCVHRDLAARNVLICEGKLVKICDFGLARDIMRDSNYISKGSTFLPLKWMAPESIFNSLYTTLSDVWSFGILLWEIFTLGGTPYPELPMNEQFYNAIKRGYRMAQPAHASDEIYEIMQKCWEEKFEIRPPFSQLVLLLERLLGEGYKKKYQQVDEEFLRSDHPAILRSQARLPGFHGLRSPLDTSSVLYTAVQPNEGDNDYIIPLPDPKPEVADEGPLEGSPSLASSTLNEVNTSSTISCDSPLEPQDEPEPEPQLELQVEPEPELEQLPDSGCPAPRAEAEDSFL

[3] = biological target: Platelet-derived growth factor receptor alpha (Homo sapiens) (UniProt P16234); test: Inhibition of PDGFR-alpha (unknown origin) at 0.5 uM relative to control
[4] = biological target: Mitogen-activated protein kinase 11 (Homo sapiens) (UniProt Q15759); test: Inhibition of p38beta (unknown origin) at 0.5 uM relative to control
[5] = biological target: Tyrosine-protein kinase ABL2 (Homo sapiens) (UniProt P42684); test: Inhibition of ARG (unknown origin) at 0.5 uM relative to control
[6] = biological target: Homeodomain-interacting protein kinase 1 (Homo sapiens) (UniProt Q86Z02); test: Inhibition of HIPK1 (unknown origin) assessed as effect on HIPK1 protein level by Western blotting analysis
Homeodomain-interacting protein kinase 1 (Homo sapiens), sequence (Q86Z02 whole entry, looked up): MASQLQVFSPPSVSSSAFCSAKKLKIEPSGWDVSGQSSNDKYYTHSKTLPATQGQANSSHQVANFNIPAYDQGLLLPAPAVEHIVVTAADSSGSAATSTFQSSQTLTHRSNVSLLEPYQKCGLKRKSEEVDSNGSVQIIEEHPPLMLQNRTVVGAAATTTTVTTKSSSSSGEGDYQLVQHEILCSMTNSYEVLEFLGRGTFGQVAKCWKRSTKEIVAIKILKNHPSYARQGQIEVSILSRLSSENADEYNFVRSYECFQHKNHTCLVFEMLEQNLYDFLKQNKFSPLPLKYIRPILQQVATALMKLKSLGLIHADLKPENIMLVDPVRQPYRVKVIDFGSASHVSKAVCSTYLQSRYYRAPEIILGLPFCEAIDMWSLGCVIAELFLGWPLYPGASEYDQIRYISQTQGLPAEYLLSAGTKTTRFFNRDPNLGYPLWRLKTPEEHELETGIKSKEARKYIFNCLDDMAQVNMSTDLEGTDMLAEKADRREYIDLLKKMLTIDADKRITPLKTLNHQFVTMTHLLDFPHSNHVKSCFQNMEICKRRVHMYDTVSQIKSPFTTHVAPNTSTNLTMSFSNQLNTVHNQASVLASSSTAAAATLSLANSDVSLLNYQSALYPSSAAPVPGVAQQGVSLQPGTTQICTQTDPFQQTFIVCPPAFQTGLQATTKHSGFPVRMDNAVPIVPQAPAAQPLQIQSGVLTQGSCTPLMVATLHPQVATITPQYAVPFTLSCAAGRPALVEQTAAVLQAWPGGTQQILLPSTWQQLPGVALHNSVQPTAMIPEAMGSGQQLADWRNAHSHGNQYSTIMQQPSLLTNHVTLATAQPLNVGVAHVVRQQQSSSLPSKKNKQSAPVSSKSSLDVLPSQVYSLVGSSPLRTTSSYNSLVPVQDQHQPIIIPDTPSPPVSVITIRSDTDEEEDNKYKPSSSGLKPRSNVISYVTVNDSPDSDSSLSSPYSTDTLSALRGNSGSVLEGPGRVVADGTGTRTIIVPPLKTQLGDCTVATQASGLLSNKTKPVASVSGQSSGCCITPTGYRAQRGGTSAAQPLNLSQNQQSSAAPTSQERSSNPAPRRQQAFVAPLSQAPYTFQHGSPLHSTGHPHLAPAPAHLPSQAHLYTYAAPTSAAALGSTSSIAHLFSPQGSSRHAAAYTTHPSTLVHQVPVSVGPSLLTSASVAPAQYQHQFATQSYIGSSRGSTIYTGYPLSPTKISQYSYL

[7] = biological target: Homeodomain-interacting protein kinase 3 (Homo sapiens) (UniProt Q9H422); test: Inhibition of HIPK3 (unknown origin) assessed as effect on HIPK3 protein level by Western blotting analysis
Homeodomain-interacting protein kinase 3 (Homo sapiens), sequence (Q9H422 whole entry, looked up): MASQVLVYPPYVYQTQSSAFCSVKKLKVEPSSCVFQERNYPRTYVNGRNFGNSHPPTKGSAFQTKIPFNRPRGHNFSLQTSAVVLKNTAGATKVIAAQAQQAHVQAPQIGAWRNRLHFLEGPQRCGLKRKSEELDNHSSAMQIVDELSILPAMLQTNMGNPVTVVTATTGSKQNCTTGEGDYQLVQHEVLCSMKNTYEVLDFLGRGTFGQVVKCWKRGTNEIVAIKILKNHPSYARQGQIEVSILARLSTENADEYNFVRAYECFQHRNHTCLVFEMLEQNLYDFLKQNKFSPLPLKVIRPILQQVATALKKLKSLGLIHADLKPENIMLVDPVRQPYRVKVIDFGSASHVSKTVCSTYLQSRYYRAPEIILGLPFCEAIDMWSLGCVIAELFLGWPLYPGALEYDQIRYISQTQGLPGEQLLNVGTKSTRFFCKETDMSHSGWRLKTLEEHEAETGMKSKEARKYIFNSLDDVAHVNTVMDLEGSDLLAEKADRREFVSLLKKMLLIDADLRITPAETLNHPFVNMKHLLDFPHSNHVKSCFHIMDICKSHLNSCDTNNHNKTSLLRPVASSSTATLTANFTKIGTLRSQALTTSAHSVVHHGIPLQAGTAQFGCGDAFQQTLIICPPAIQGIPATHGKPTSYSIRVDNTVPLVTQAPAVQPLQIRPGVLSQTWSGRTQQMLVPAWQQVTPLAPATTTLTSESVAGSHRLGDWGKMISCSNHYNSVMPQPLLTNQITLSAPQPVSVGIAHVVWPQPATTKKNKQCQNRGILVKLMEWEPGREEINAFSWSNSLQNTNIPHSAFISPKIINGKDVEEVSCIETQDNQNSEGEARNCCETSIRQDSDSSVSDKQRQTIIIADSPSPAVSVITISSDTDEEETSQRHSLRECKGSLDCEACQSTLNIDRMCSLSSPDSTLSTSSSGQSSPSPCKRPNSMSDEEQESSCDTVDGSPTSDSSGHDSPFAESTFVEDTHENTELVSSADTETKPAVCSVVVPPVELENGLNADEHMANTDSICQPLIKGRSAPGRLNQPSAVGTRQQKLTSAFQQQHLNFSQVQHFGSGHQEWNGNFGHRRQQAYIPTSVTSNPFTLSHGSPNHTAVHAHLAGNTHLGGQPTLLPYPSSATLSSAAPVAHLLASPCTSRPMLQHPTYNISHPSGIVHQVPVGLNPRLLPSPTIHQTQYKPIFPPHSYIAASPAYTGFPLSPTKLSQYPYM

GILM3 = test: Inhibition of cell migration in human GILM3 cells at 1 to 10 uM; type: functional, cell-based; settings: dose 1-10 µM
[8] = biological target: T1, Ephrin type-A receptor 8 (Homo sapiens) (UniProt P29322); test: Inhibition of EPHA8 (unknown origin) at 0.5 uM relative to control
T1 sequence (whole entry): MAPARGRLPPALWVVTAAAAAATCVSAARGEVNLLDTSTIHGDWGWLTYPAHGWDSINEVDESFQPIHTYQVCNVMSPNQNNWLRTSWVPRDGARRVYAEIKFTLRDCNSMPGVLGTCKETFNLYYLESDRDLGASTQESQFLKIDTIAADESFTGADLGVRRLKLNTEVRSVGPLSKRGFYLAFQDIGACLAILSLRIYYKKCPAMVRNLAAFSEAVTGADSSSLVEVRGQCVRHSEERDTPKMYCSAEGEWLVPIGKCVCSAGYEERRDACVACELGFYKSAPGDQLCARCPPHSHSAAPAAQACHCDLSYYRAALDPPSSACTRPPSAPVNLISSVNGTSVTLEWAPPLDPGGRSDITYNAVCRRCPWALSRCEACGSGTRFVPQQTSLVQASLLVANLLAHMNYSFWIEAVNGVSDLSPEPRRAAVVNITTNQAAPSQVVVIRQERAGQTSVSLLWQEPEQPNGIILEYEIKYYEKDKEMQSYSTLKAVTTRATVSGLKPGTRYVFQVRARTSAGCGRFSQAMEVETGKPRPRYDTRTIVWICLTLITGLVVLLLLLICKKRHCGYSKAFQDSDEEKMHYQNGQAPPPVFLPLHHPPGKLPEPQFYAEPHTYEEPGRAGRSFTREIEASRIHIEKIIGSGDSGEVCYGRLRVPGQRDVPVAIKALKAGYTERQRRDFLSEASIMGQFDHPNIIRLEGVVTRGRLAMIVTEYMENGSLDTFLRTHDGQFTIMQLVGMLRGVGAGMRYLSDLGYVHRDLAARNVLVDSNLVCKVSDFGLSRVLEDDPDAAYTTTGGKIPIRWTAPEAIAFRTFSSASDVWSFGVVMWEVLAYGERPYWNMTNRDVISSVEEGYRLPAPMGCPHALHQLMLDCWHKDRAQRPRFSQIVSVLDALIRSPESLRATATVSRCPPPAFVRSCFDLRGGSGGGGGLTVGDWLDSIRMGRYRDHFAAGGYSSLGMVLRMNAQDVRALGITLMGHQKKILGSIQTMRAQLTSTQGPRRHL

[9] = biological target: Serine/threonine-protein kinase TAO2 (Homo sapiens) (UniProt Q9UL54); test: Inhibition of TAOK2 (unknown origin) at 0.5 uM relative to control
[10] = biological target: Vascular endothelial growth factor receptor 2 (Homo sapiens) (UniProt P35968); test: Inhibition of KDR (unknown origin) at 0.5 uM relative to control
Vascular endothelial growth factor receptor 2 (Homo sapiens), sequence (P35968 whole entry): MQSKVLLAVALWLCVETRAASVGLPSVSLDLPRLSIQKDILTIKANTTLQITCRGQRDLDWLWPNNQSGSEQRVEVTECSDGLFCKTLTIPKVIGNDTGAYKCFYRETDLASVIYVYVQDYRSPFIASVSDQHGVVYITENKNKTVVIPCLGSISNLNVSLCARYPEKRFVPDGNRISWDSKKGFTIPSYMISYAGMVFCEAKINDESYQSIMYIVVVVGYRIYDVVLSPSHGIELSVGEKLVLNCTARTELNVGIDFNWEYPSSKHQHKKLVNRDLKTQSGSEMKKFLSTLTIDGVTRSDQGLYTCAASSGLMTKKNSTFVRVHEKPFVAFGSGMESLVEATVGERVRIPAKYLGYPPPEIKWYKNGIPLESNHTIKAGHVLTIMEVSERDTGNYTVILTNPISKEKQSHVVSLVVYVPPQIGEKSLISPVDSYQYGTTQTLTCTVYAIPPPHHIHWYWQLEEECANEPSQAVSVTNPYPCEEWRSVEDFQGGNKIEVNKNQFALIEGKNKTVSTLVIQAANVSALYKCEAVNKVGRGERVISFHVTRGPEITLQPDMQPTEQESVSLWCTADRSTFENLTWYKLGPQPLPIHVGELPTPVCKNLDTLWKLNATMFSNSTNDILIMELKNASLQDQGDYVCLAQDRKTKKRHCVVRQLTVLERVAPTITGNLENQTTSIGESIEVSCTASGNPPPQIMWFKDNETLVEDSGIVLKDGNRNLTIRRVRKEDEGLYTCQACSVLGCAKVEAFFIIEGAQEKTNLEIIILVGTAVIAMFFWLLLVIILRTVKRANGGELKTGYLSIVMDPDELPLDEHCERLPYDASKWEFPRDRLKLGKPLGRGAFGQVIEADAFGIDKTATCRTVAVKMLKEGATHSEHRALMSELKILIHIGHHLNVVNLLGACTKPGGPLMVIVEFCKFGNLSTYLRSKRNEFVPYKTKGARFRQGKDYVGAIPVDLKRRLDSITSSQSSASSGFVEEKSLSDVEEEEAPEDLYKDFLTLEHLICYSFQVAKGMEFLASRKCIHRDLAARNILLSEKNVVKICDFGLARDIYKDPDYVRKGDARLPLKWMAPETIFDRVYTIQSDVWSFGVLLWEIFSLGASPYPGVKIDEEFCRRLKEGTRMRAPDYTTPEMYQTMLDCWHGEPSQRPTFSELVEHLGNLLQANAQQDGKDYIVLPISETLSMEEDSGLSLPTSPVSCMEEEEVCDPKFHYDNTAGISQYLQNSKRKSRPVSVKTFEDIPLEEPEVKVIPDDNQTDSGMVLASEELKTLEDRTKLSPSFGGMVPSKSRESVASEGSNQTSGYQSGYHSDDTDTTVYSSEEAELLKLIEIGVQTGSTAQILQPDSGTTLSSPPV

[11] = biological target: SRSF protein kinase 3 (Homo sapiens) (UniProt Q9UPE1); test: Inhibition of MSSK1 (unknown origin) at 0.5 uM relative to control
[12] = biological target: MAP kinase-interacting serine/threonine-protein kinase 2 (Homo sapiens) (UniProt Q9HBH9); test: Inhibition of MNK2 (unknown origin) at 0.5 uM relative to control
[13] = biological target: MAP kinase-interacting serine/threonine-protein kinase 1 (Homo sapiens) (UniProt Q9BUB5); test: Inhibition of MNK1 (unknown origin) at 0.5 uM relative to control
[14] = biological target: Serine/threonine-protein kinase B-raf (Homo sapiens) (UniProt P15056); test: Inhibition of BRAF (unknown origin) at 0.5 uM relative to control
[15] = biological target: Ephrin type-B receptor 3 (Homo sapiens) (UniProt P54753); test: Inhibition of EPHB3 (unknown origin) at 0.5 uM relative to control
[16] = biological target: Vascular endothelial growth factor receptor 3 (Homo sapiens) (UniProt P35916); test: Inhibition of FLT4 (unknown origin) at 0.5 uM relative to control
[17] = biological target: Ephrin type-A receptor 1 (Homo sapiens) (UniProt P21709); test: Inhibition of EPHA1 (unknown origin) at 0.5 uM relative to control
[18] = biological target: Mitogen-activated protein kinase kinase kinase kinase 5 (Homo sapiens) (UniProt Q9Y4K4); test: Inhibition of MAP4K5 (unknown origin) at 0.5 uM relative to control
[19] = biological target: Tyrosine-protein kinase Lyn (Homo sapiens) (UniProt P07948); test: Inhibition of LYNB (unknown origin) at 0.5 uM relative to control
[20] = biological target: Proto-oncogene tyrosine-protein kinase Src (Homo sapiens) (UniProt P12931); test: Inhibition of SRC (unknown origin) at 0.5 uM relative to control
[21] = biological target: Serine/threonine-protein kinase PLK2 (Homo sapiens) (UniProt Q9NYY3); test: Inhibition of PLK2 (unknown origin) at 0.5 uM relative to control
[22] = biological target: Mitogen-activated protein kinase kinase kinase 10 (Homo sapiens) (UniProt Q02779); test: Inhibition of MLK2 (unknown origin) at 0.5 uM relative to control
[23] = biological target: Ephrin type-A receptor 2 (Homo sapiens) (UniProt P29317); test: Inhibition of EPHA2 (unknown origin) at 0.5 uM relative to control
[24] = biological target: Tyrosine-protein kinase JAK1 (Homo sapiens) (UniProt P23458); test: Inhibition of JAK1 (unknown origin) at 0.5 uM relative to control
[25] = biological target: Tyrosine-protein kinase JAK2 (Homo sapiens) (UniProt O60674); test: Inhibition of JAK2 (unknown origin) at 0.5 uM relative to control
[26] = biological target: Dual specificity mitogen-activated protein kinase kinase 4 (Homo sapiens) (UniProt P45985); test: Inhibition of MAP2K4 (unknown origin) at 0.5 uM relative to control

With CNC(=O)c1cc(Oc2ccc(NC(=O)c3nc(SC)n(CCN(C)C)c3-c3ccc(F)cc3)cc2)ccn1 the inhibition [1] was 64%, the inhibition [2] was 70% and the inhibition [3] was 44%.
In the case of CNC(=O)c1cc(Oc2ccc(NC(=O)c3nc(SC)oc3-c3ccc(F)cc3)cc2)ccn1, the inhibition [4] is reported as 40%, the inhibition [5] is reported as 40% and the Activity [6] is reported as “inactive”. The Activity [7] was “inactive”, the inhibition [2] was 55% and the inhibition (GILM3) was “Active”. It also gave an inhibition [8] of 54%.
Compound CNC(=O)c1cc(Oc2ccc(NC(=O)c3nc(NC)sc3-c3ccc(F)cc3)cc2)ccn1 has an inhibition [9] of 44% and an inhibition [2] of 61%.
Work on CNC(=O)c1cc(Oc2ccc(NC(=O)c3n[nH]nc3-c3ccc(F)cc3)cc2)ccn1 yielded an inhibition [10] of 25%, an inhibition [11] of 25% and an inhibition [12] of 32%. The inhibition [13] was 54%, the inhibition [2] was 60% and the inhibition [14] was 28%. It also gave an inhibition [8] of 51%.
CNC(=O)c1cc(Oc2ccc(NC(=O)c3nc(C(F)(F)F)sc3-c3ccc(F)cc3)cc2)ccn1 gave an inhibition [10] of 53%, an inhibition [15] of 23% and an inhibition [5] of 32%. It also gave an inhibition [16] of 25%, an inhibition [17] of 37% and an inhibition [18] of 55%.
CNC(=O)c1cc(Oc2ccc(NC(=O)c3nc(SC)[nH]c3-c3ccc(F)cc3)cc2)ccn1 was tested, and the inhibition [10] was 95%, the inhibition [12] was 90% and the Activity [6] was “inactive”. For the same compound, the inhibition [19] was 93%, the Activity [7] was “inactive” and the inhibition (GILM3) was “Active”. For the same compound, the inhibition [18] was 94%.
With CNC(=O)c1cc(Oc2ccc(NC(=O)c3nc(SC)oc3-c3ccc(F)cc3)cc2F)ccn1 the inhibition [20] was 40% and the inhibition [2] was 40%.
CSc1nc(C(=O)Nc2ccc(Oc3cc4cnn(C)c4cc3Br)cc2)c(-c2ccc(F)cc2)o1 was tested, and the inhibition [4] was 21%, the inhibition [11] was 14% and the inhibition [21] was 19%. For the same compound, the inhibition [22] was 21%, the inhibition [23] was 25% and the inhibition [17] was 37%. The inhibition [14] was 19%, the inhibition [24] was 21% and the inhibition [25] was 14%. For the same compound, the inhibition [26] was 16%.
CNC(=O)c1cc(Oc2ccc(NC(=O)c3nc(S(C)(=O)=O)sc3-c3ccc(F)cc3)cc2)ccn1 was tested, and the inhibition [10] was 27%, the Activity [6] was “inactive” and the Activity [7] was “inactive”. The inhibition (GILM3) was “Active” and the inhibition [8] was 54%.
